# Test results as given in patent US8466309B2, “Amino acid derivatives, method for preparing same, and therapeutic use thereof” (priority 2008, dated 2013).
# Tests used:
# Assay type in all cases: in vivo
# [1] = tested on: male OF1 mice; assay: Von Frey test: mechanical allodynia after partial ligature of the sciatic nerve; details: oral 50 mg/kg, maximum at 60 min, day 14 post-surgery
# Procedure: (§1) This test was described in detail by A. B. Malmberg and A. I. Basbaum, Partial sciatic nerve injury in the mouse as a model of neuropathic pain: behavioural and neuroanatomical correlates. Pain, (1998) 76, 215-222.
# (§2) It was conducted on male OF1 mice (Charles River), of 18-20 g, n=39, by partial ligature of the sciatic nerve on the ipsilateral side. The animals are tested in the period (3-26 days) after the operation.
# Measurement of hyperalgesia was carried out according to the method described by K. Hargreaves et al., A new sensitive method for measuring thermal nociception in cutaneous hyperalgesia, Pain, (1988), 32, 77-88, by using as a heat source, the “Plantar test” apparatus (Bioseb, France). The intensity of the nociceptive stimulus is calibrated to 8-10 s with an automatic stopping threshold (cut-off time) at 20 s. The average of the withdrawals of the paw induced by the heat, was measured on the ipsilateral paws (damaged nerve) and contralateral paws (intact nerve). […] Mechanical allodynia is measured as described by S. R. Chaplan et al., Quantitative assessment of tactile allodynia in the rat paw, J. Neurosci. […] The mechanical antiallodynic effect is measured by the method of Von Frey with filaments of increasing size exerting also increasing pressure.
# The effect of the compound of Example 10 on mechanical allodynia is measured by the Von Frey test. […]
# [2] = tested on: male OF1 mice; assay: Plantar test: thermal hyperalgesia after partial ligature of the sciatic nerve
# Procedure: as §1, §2
# Measurement of hyperalgesia was carried out according to the method described by K. Hargreaves et al., A new sensitive method for measuring thermal nociception in cutaneous hyperalgesia, Pain, (1988), 32, 77-88, by using as a heat source, the “Plantar test” apparatus (Bioseb, France). The intensity of the nociceptive stimulus is calibrated to 8-10 s with an automatic stopping threshold (cut-off time) at 20 s. The average of the withdrawals of the paw induced by the heat, was measured on the ipsilateral paws (damaged nerve) and contralateral paws (intact nerve). This measurement was carried out 3 times on each paw. Mechanical allodynia is measured as described by S. R. Chaplan et al., Quantitative assessment of tactile allodynia in the rat paw, J. Neurosci. Meth. (1994), 53, 55-63. The ipsilateral (lesion) and contralateral (control) paws are tested as earlier. The mechanical antiallodynic effect is measured by the method of Von Frey with filaments of increasing size exerting also increasing pressure.
# FIG. 3: Neuropathic pain model: partial ligature of the sciatic nerve (mice). Response generated by per os administration of the carrier (□) or of the compound of Example 10 (▪): removal of the paw (in second) versus time (in minutes).
# Carrier: EtOH/0.5% methylcellulose (1.5/98.5)
# Tests carried out at day 14 post-surgery; ipsilateral paw
# Abscissa: time in minutes, ordinate: withdrawal of the paw in seconds
# Plantar test: evaluation of thermal hyperalgia
# Average of the contralateral paws: compound 10 at 90 min=8.3 s.
# [3] = tested on: male OF1 mice; assay: Formalin test (phase I), number of paw lickings after oral administration; details: 120 minutes after administration (FIG. 2)
# Source text: A/Formalin Test (Phase I) […]
# The animals (male OF1 mice) come from the Charles River breeder (France) and weigh 25-35 g at the beginning of the experiment. The weight of each mouse is taken into account for administering the product.
# The test is based on the procedure described by S. HUNSKAAR et al., Formalin test in mice, a useful technique for evaluating mild analgesics, J. Neurosci. Methods […], 14, 69-75.
# The mice (n=8) are individually placed in a transparent enclosure (50×25 cm) and become accustomed to this environment for 20 minutes. After this period, 20 μL of formalin (5% HCHO) in solution in saline solution (H2O, 0.9% NaCl), are injected subcutaneously on the plantar face of the right paw of the animal. A 26 syringe connected to a microsyringe is used. Each mouse is then immediately placed back into the test enclosure and pain (nociceptive) responses are measured for 5 minutes (early phase). Only the lickings of the paw are counted. […]
# The analgesic action of the product is measured by the decrease in the number of lickings of the lesioned paw, as compared with the number of lickings of the animal which has received the carrier alone. […]
Compound,"anti-allodynic effect, maximum, as % of the maximum response (non-treated control) [1] [%]","withdrawal of the paw, average of the contralateral paws ([2]; 50 mg/kg, at 90 min, intact nerve side) [s]","maximum effect on thermal hyperalgesia ([2]; p.o. 50 mg/kg, at 80 min) [%]","withdrawal of the paw (ipsilateral paw) ([2]; p.o. 50 mg/kg, at 80 min, plantar test, day 14 post-surgery) [s]","decrease of thermal hyperalgesia induced by partial ligature of the sciatic nerve ([2]; p.o. 50 mg/kg, period from 45 to 150 min, day 14 post-surgery, ipsilateral paw)",analgesic activity at 120 minutes [3]
"CSCCC(CSSCC(Cc1ccccc1)C(=O)NCC(=O)O)NC(=O)OC(C)OC(=O)C(C)C (stereo not drawn) [Example 10, 1-{1-[2-(carboxymethyl-carbamoyl)-3-phenyl-propyl-disulfanylmethyl]-3-methylsulfanyl-propylcarbamoyl-oxy}-ethyl isobutyric acid ester]",75,8.3,100,8.2 ± 0.9,65-100%,
NH2—CH(CH2CH2SCH3)—CH2—S—S—CH2—CH(CH2C6H5)—CONH—CH2—CONH—CO—CH(CH3)—O—CO—OCH2CH3 [Compound 15],,,,,,no longer has any activity
